For data set [1], the system named is A549 (human lung cancer) cell line. Put plainly: Cell proliferation assay (MTT), A549. Conditions: 48 h exposure, n = 3 (mean ± SD), read-out: Proliferative inhibition IC50, A549. Format: cell-based. On the procedure:
(§1) The anti-proliferative activities of the prepared compounds (12a-12s) were evaluated against A549, MCF-7 and MKN-45 cell lines by MTT assay in vitro. Briefly, tumour cells were cultured to log phase in RPMI 1640 medium supplemented with 10% foetal bovine serum (FBS). After diluting to 2 × 10^4 cells mL^−1 with the complete medium, 100 µL of the obtained cell suspension was added to each well of 96-well culture plates. Subsequently, incubation was performed at 37 °C in 5% CO2 for 24 h before the anti-proliferative assessment. Tested samples at pre-set concentrations were added to 6 wells with cabozantinib as a positive reference. After 48 h exposure period, 40 µL of PBS containing 2.5 mg mL^−1 of MTT was added to each well. Four hours later, 100 µL extraction solution (10% SDS-5% isobutyl alcohol-0.010M HCl) was added. After an overnight incubation at 37°C, the absorbance was measured at a wavelength of 570 nm with an ELISA microplate reader. All compounds were tested three times in each tumour cell lines. The IC50 values were the averages of three determinations and calculated by concentration-response curve fitting method.
(§2) All the synthesised compounds […] were evaluated for their antiproliferation activities against A549 (human lung cancer), MCF-7 (human breast cancer) and MKN-45 (human gastric cancer) cell lines by MTT assay, using cabozantinib as the positive control.

Data set [2] deals with MKN-45 (human gastric cancer) cell line. Put plainly: Cell proliferation assay (MTT), MKN-45. Format: cell-based. The conditions noted are these: 48 h exposure, n = 3 (mean ± SD), read-out: Proliferative inhibition IC50, MKN-45. On the procedure: as §1, §2
A further data set deals with T1, c-Met kinase (Homo sapiens, UniProt P08581).
T1 construct: purchased Carna
T1 sequence (P08581 25-1390): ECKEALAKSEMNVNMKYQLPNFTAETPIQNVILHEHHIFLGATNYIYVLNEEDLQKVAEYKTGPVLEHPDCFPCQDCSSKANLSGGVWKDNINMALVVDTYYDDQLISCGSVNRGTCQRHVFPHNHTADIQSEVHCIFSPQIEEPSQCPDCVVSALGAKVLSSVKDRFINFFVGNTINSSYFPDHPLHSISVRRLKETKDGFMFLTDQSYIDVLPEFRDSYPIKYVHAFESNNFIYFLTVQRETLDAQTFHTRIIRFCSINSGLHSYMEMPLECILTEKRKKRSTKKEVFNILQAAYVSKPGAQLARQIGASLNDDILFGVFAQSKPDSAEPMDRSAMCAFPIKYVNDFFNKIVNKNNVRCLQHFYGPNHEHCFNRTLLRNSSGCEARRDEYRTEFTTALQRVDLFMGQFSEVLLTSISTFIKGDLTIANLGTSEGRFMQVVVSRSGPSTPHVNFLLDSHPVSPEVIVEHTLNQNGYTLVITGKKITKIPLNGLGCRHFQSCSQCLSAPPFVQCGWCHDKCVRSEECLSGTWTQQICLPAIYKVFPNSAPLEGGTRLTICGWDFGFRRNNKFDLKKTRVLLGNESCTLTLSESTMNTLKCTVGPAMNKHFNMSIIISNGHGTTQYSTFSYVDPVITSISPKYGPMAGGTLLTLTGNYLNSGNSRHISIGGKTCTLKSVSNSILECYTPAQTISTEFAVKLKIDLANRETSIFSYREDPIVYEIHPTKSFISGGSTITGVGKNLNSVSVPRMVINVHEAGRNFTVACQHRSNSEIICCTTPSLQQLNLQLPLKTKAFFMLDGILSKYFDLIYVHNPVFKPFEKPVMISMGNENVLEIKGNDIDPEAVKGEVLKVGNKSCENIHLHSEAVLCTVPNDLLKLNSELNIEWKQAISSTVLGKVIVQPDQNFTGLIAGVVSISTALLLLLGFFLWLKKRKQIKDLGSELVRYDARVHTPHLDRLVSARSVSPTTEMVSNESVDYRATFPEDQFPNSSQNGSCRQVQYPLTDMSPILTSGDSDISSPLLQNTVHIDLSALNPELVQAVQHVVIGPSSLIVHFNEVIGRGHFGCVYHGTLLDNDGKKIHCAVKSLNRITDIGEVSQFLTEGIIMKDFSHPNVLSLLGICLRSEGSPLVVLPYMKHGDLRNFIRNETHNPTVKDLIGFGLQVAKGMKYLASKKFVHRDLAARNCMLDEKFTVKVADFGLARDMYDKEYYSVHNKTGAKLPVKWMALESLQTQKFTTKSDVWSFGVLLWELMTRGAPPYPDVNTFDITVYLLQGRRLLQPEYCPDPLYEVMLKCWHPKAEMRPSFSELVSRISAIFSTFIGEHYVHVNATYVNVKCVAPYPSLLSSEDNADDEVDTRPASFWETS
Put plainly: c-Met inhibition assay (Caliper motility shift assay). The data set is classed as biochemical. The conditions noted are these: for c-Met inhibition % Inhibition (10 μΜ): 10 μΜ compound; for c-Met inhibition % Inhibition (10 μΜ) / IC50: n = 3 (mean ± SD); for c-Met inhibitory activity in words: SAR statement, ortho-substituted compounds. On the procedure:
A Caliper motility shift assay was applied to test the potency of synthesised compounds against c-Met kinase. Briefly, the compounds were dissolved in DMSO (Sigma) at 0.5 mM concentration, and then were diluted 50× to the final desired highest inhibitor concentration (10 μM) in reaction by DMSO. For all compounds, 100 μL of the diluted compound solution in tubes was transferred to a well on a 96-well plate (Corning) and was serially diluted 10× by transferring 10 μL dilution to 90 μL DMSO in the next well. 100 μL DMSO was added to two empty wells in the same 96-well plate for no compound control and no enzyme control. The plate was marked as source plate. 10 μL of compound solution from source plate was transferred to a new 96-well plate as the intermediate plate. […] After that, 5 μL solution from each well of the intermediate plate was transferred to a 384-well plate (Corning) as the assay plate in duplicates.c-Met kinase (Carna) was added in 1× kinase base buffer to prepare 2.5× enzyme solution, and FAM-labled peptide (GL Biochem) and ATP (Sigma) were added in 1× kinase base buffer to prepare 2.5× peptide solution. 10 μL of 2.5× enzyme solution was added to each well of the 384-well assay plate that already contained 5 μL of compound in 10% DMSO, and then incubated at room temperature for 10 min. […] The data were collected on Caliper and the conversion data were copied from Caliper program.
IC50 values were calculated from three independent experiments by fitting the data in XLfit with the following equation: Y = Bottom + (Top-Bottom)/(1 + (IC50/X)^HillSlope).

The subject of data set [3] is MCF-7 (human breast cancer) cell line. The data set can be described thus: Cell proliferation assay (MTT), MCF-7. The data set is classed as cell-based. The conditions noted are these: MCF7, 48 h exposure, n = 3 (mean ± SD), read-out: Proliferative inhibition IC50, MCF-7. The method, then: as §1, §2

Here are results for eleven compounds from paper PMC6237173, “Synthesis of novel 6,7-dimethoxy-4-anilinoquinolines as potent c-Met inhibitors” (Journal of Enzyme Inhibition and Medicinal Chemistry, 2018).

The IC50 is the concentration that gives 50% inhibition. Broadly, the melting point is the temperature, or range, at which the solid turns liquid.

Turning to `COc1cc2nccc(Nc3ccc4nc(-c5cccc(I)c5)[nH]c4c3)c2cc1OC` [Compound 12i, N-(2–(3-iodophenyl)-1H-benzo[d]imidazol-6-yl)-6,7-dimethoxyquinolin-4-amine], the melting point lay in the range of 201 to 203 °C. For the same compound, the IC50 in data set [1] is 23.8 ± 2 µM. Further, the concentration for half-maximal inhibition (IC50) in data set [2] came out at 36.1 ± 2.7 µM. Moreover, on c-Met kinase, the “c-Met inhibition % Inhibition (10 μΜ)” value worked out at 66.0 ± 0.8% and the IC50 was determined as 0.54 ± 0.13 µM. Besides, the IC50 in data set [3] amounted to 30.5 ± 1.6 µM.
`CCc1ccc(-c2nc3ccc(Nc4ccnc5cc(OC)c(OC)cc45)cc3[nH]2)cc1` [Compound 12m, N-(2–(4-ethylphenyl)-1H-benzo[d]imidazol-6-yl)-6,7-dimethoxyquinolin-4-amine] displayed a melting point of 210 to 212 °C. For the same compound, the IC50 in data set [1] came out at 12.5 ± 1.3 µM. Besides, in data set [2], the IC50 worked out at 14.9 ± 0.7 µM. In addition, at c-Met kinase, the “c-Met inhibition % Inhibition (10 μΜ)” value is recorded as 95.0 ± 0.3% and the IC50 came out at 0.056 ± 0.012 µM. Also, the IC50 in data set [3] worked out at 18.4 ± 2.1 µM.
`COc1cc2nccc(Nc3ccc4nc(-c5ccccc5OC)[nH]c4c3)c2cc1OC` [Compound 12o, 6,7-Dimethoxy-N-(2–(2-methoxyphenyl)-1H-benzo[d]imidazol-6-yl)quinolin-4-amine]: the melting point lay within 164 to 166 °C. Further, the IC50 in data set [1] is greater than 100 µM. Further, the IC50 in data set [2] is greater than 100 µM. In addition, the “c-Met inhibition % Inhibition (10 μΜ)” value at c-Met kinase was 24.2 ± 0.1%. The IC50 in data set [3] is greater than 100 µM.
Compound `COc1cc2nccc(Nc3ccc4nc(-c5c(F)cccc5F)[nH]c4c3)c2cc1OC` [Compound 12p, N-(2–(2,6-difluorophenyl)-1H-benzo[d]imidazol-6-yl)-6,7-dimethoxyquinolin-4-amine] displayed a melting point of 208 to 210 °C. In addition, the IC50 in data set [1] was greater than 100 µM. Besides, in data set [2], the IC50 is greater than 100 µM. Moreover, at c-Met kinase, the “c-Met inhibition % Inhibition (10 μΜ)” value came out at 25.9 ± 1.5% and the “c-Met inhibitory activity in words” value is given as “loss of activity”. The IC50 in data set [3] is greater than 100 µM.
In turn, `COc1cc2nccc(Nc3ccc4nc(-c5ccc(F)cc5)[nH]c4c3)c2cc1OC` [Compound 12c, N-(2–(4-fluorophenyl)-1H-benzo[d]imidazol-6-yl)-6,7-dimethoxyquinolin-4-amine] came in with a melting point of 312 to 315 °C. The IC50 in data set [1] stood at 15.6 ± 2.5 µM. In addition, the IC50 in data set [2] was 21 ± 1.8 µM. Further, on c-Met kinase, the “c-Met inhibition % Inhibition (10 μΜ)” value came to 89.2 ± 0.3% and the IC50 came to 0.11 ± 0.02 µM. Moreover, the “fold more potent c-Met activity than compound 12b” value on c-Met kinase (ratio of c-Met IC50 values, versus 12b) stood at 11 fold. Besides, in data set [3], the IC50 was 11.3 ± 1.6 µM.
The compound `COc1cc2nccc(Nc3ccc4nc(-c5cccc(Cl)c5)[nH]c4c3)c2cc1OC` [Compound 12e, N-(2–(3-chlorophenyl)-1H-benzo[d]imidazol-6-yl)-6,7-dimethoxyquinolin-4-amine] had a melting point of 250 to 252 °C. Moreover, the IC50 in data set [1] came to 53.8 ± 5 µM. Also, in data set [2], the IC50 is 85.7 ± 3.7 µM. Moreover, on c-Met kinase, the “c-Met inhibition % Inhibition (10 μΜ)” value was found to be 54.5 ± 6.9% and the IC50 was determined as 4.8 ± 0.5 µM. Moreover, in data set [3], the IC50 worked out at 63.5 ± 4.8 µM.
The compound `COc1cc2nccc(Nc3ccc4nc(-c5ccccc5F)[nH]c4c3)c2cc1OC` [Compound 12a, N-(2–(2-fluorophenyl)-1H-benzo[d]imidazol-6-yl)-6,7-dimethoxyquinolin-4-amine] yielded a melting point of 247 to 249 °C. Further, the IC50 in data set [1] was greater than 100 µM. Further, in data set [2], the IC50 was greater than 100 µM. Further, at c-Met kinase, the “c-Met inhibition % Inhibition (10 μΜ)” value is recorded as 16.9 ± 3.5% and the “c-Met inhibitory activity in words” value is recorded as “diminished activity”. Moreover, the IC50 in data set [3] was greater than 100 µM.
Compound `COc1cc2nccc(Nc3ccc4nc(-c5ccc(Cl)cc5)[nH]c4c3)c2cc1OC` [Compound 12f, N-(2–(4-chlorophenyl)-1H-benzo[d]imidazol-6-yl)-6,7-dimethoxyquinolin-4-amine] showed a melting point of 330 to 332 °C. In addition, in data set [1], the IC50 is 32.4 ± 3.6 µM. Moreover, the IC50 in data set [2] is 39.5 ± 2.5 µM. At c-Met kinase, the “c-Met inhibition % Inhibition (10 μΜ)” value is 63.8 ± 0.7% and the IC50 amounted to 0.93 ± 0.1 µM. Moreover, the “fold lower c-Met activity than compound 12c” value on c-Met kinase (ratio of c-Met IC50 values, versus 12c) is given as “about 9 fold”. For the same compound, the IC50 in data set [3] turned out to be 29.2 ± 1.4 µM.
Compound `COc1cc2nccc(Nc3ccc4nc(-c5ccc(Cl)c(Cl)c5)[nH]c4c3)c2cc1OC` [Compound 12r, N-(2–(3,4-dichlorophenyl)-1H-benzo[d]imidazol-6-yl)-6,7-dimethoxyquinolin-4-amine] registered a melting point of 336 to 338 °C. Moreover, in data set [1], the IC50 was determined as 83.6 ± 4 µM. In addition, the IC50 in data set [2] was greater than 100 µM. Besides, on c-Met kinase, the “c-Met inhibition % Inhibition (10 μΜ)” value is 55.4 ± 2.9% and the IC50 is 5.3 ± 1.6 µM. Moreover, in data set [3], the IC50 turned out to be 79.2 ± 1.7 µM.
`COc1cc2nccc(Nc3ccc4nc(-c5cccc(C)c5)[nH]c4c3)c2cc1OC` [Compound 12k, 6,7-Dimethoxy-N-(2-(m-tolyl)-1H-benzo[d]imidazol-6-yl)quinolin-4-amine] displayed a melting point of 339 to 342 °C. The IC50 in data set [1] was determined as 72.6 ± 6.5 µM. Moreover, in data set [2], the IC50 was 87.2 ± 6.7 µM. Moreover, at c-Met kinase, the “c-Met inhibition % Inhibition (10 μΜ)” value worked out at 52.7 ± 1.6% and the IC50 is 8.5 ± 2 µM. For the same compound, the IC50 in data set [3] turned out to be 78.3 ± 3.5 µM.
`COc1cc2nccc(Nc3ccc4nc(-c5c(Cl)cccc5Cl)[nH]c4c3)c2cc1OC` [Compound 12q, N-(2–(2,6-dichlorophenyl)-1H-benzo[d]imidazol-6-yl)-6,7-dimethoxyquinolin-4-amine] displayed a melting point of 254 to 257 °C. In data set [1], the IC50 was greater than 100 µM. Moreover, in data set [2], the IC50 was greater than 100 µM. At c-Met kinase, the “c-Met inhibition % Inhibition (10 μΜ)” value came to 37.0 ± 4.0% and the “c-Met inhibitory activity in words” value was “loss of activity”. Moreover, in data set [3], the IC50 is greater than 100 µM.
